In US8815919B2, “Oxadiazole derivatives” (Merck Serono SA, priority 2009, dated 2014):
Counter-ions that a name gives are not always drawn. Like-named read-outs stand apart in the source and are kept apart here.

What was measured:
S1P1 [1] = biological target: T1, S1P1 (Homo sapiens, UniProt P21453); test: Receptor binding assay, [33P]sphingosine 1-phosphate competition, S1P1 membranes, WGA SPA beads
Method in brief: (§1)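 Competition of [33P]S1P ([…]) on CHO cell membranes with WGA SPA beads in 50 mM HEPES pH 7.5, 5 mM MgCl2, 100 mM NaCl, 0.4% fatty acid-free BSA; 60 min at RT. Triplicates normalised to total binding and nonspecific binding (1000-fold excess unlabeled S1P).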
Target sequence in this assay (P21453 whole entry, species assumed): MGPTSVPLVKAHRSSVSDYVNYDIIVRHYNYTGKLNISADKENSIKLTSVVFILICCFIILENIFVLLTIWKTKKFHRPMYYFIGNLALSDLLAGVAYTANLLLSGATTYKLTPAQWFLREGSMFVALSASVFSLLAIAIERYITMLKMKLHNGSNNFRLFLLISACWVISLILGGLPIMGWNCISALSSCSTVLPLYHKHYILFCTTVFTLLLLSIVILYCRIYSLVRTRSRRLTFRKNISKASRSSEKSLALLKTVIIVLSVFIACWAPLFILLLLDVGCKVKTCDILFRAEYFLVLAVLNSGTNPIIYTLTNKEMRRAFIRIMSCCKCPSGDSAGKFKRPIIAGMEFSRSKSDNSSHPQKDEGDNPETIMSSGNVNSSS

S1P1 [2] = biological target: T1, S1P1; test: S1P1 internalization assay in S1P1-U2OS cells (S1P1-EGFP), cell imaging; type: cell-based; design: host or cells: U2OS (human bone osteosarcoma epithelial cells), CMV promoter, geneticin selection; settings: 1 hour incubation
Method in brief: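 U2OS cells stably expressing human S1P1-EGFP, plated overnight in 1% FCS medium, then serum-starved 2 h in 0.1% fatty-acid-free BSA before 1 h compound exposure at 37 °C. After PFA fixation and Hoechst staining, internalization imaged as EGFP spot count per nucleus.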
Target sequence in this assay (P21453 whole entry): as the sequence (P21453 whole entry, species assumed) above

S1P3 [3] = biological target: T2, S1P3 (Homo sapiens, UniProt Q99500); test: 35S-GTPγS binding on membranes of CHO cells expressing S1P3; type: biochemical; settings: read-out: S1P3/GTPG EC50
Experimental: (§2) Membranes were prepared from CHO cells expressing S1P1 or S1P3 for use in ligand and […] binding studies. Cells were suspended in 50 mM TRIS, pH 7.4, 2 mM EDTA, 250 mM Sucrose (buffer A) and 1× Complete protease inhibitor cocktail (Roche), and disrupted at 4° C. by N2 decompression using a cell disruption bomb (Parr Instrument). Following centrifugation at 1000 RPM for 10 min at 4° C., the supernatant was diluted (2×) in buffer A and centrifuged again at 19000 RPM for 75 min at 4° C. The pellet was then suspended in 10 mM HEPES, pH 7.4, 1 mM EDTA, 250 mM Sucrose (Buffer B), and 1× Complete EDTA-free protease inhibitor cocktail and homogenized using a potter. Membranes were flash frozen in liquid N2 and stored at −80° C.
(§3) Membranes (1 to 10 μg protein) prepared as described above, were incubated in 96-well Scintiplates (PerkinElmer) with test compounds diluted in DMSO, in 140 μl of 20 mM HEPES, pH 7.4, 10 mM MgCl2, 2 μg/well Saponin, 0.2% fatty acid free BSA (Assay buffer), 125 mM NaCl and 1.5 μM GDP. The assay was initiated with the addition of 60 μl of 1.5 nM [35S]-GTPγS (1100 Ci/mmol; GE Healthcare) in assay buffer. After 60 min incubation at 30° C. on a shaker, plates were centrifuged for 10 min at 2000 RPM. Supernatant was discarded and membrane bound radioactivity was measured on a PerkinElmer 1450 MicroBeta counter. Triplicate samples were averaged and expressed as % response relative to S1P activation in absence of compound (n=2).
(§4) The “potency” or the “activity” of the compounds is determined by the EC50 values as evaluated in the above described 35S-GTPγS binding assay.

S1P3 [4] = biological target: T2, S1P3; test: Receptor binding assay, [33P]sphingosine 1-phosphate competition, S1P3 membranes, WGA SPA beads
Method in brief: as §1

S1P1 [5] = biological target: T1, S1P1; test: 35S-GTPγS binding on membranes of CHO cells expressing S1P1; type: biochemical; settings: read-out: S1P1/GTPG EC50
Experimental: as §2, §3, §4
Target sequence in this assay (P21453 whole entry, species assumed): as above

lymphocytes = test: Model of S1P agonists-induced lymphopenia in mice; type: in vivo; settings: oral
Experimental: (§5) Female C57BL/6 mice (Elevage Janvier) (8 week old) receive S1P agonists by oral route. Blood is sampled in heparinized (100 IU/kg, ip) mice by intracardiac or retroorbital puncture under isoflurane anesthesia 2 to 120 hrs after drug treatment. The white blood cells (lymphocytes and neutrophils) are counted using a Beckman/Coulter counter. The quality of blood sampling is assessed by counting erythocytes and platelets.

[6] = Pharmacokinetics in mouse (PK parameters from lymphopenia study); type: in vivo; settings: 30 mpk
Experimental: as §5
Pharmacokinetics Data: • The pharmacoinetic properties of compound of example 20, N-(3-fluoro-5-{5-[2-(methoxymethyl)-2′-methylbiphenyl-4-yl]-1,2,4-oxadiazol-3-yl}benzyl)-N-methylglycine, hydrochloride salt, are the following: […]

[7] = 96 well-plate, read-out: S1P1 binding Ki (M) (96 well-plate)
[8] = 96 well-plate, read-out: S1P3 binding Ki (M) (96 well-plate)
[9] = 384 well-plate, read-out: S1P3 binding Ki (M) (384 well-plate)
[10] = 384 well-plate, read-out: S1P1 binding Ki (M) (384 well-plate)
[11] = female, C57BL/6, plasma, po, 30 mg/kg

T2 sequence (Q99500 whole entry, species assumed): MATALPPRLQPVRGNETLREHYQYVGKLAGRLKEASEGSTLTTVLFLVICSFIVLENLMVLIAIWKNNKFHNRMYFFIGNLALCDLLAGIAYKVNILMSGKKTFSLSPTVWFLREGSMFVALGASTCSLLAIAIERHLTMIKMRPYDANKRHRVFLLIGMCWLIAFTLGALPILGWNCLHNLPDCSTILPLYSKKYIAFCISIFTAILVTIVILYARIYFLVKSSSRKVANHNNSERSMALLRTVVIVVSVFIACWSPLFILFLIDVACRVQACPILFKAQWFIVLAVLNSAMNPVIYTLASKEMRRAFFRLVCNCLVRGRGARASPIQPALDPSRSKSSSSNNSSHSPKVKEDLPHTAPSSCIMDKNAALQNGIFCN

Row | Structure (SMILES) | melting point [°C] | Ki (S1P1 [1]; [7]) [M] | EC50 (S1P1 [2]) [nM] | EC50 (S1P3 [3]) [nM] | Ki (S1P3 [4]; [8]) [M] | Ki (S1P3 [4]; [9]) [M] | EC50 (S1P1 [5]) [nM] | other results
1 | COC(C)c1cc(-c2nc(-c3ccc(CN(C)CC(=O)O)cc3)no2)ccc1-c1ccccc1C (stereo not drawn) (as salt: hydrochloride) (hydrate or solvate) [Example 140, N-(4-{5-[2-(1-methoxyethyl)-2′-methylbiphenyl-4-yl]-1,2,4-oxadiazol-3-yl}benzyl)-N-methylglycine, hydrochloride salt] | 179 to 181 |  |  |  |  |  |  | 
2 | COCc1cc(-c2nc(-c3cccc(CN(C)CC(=O)O)c3)no2)ccc1-c1cccc(F)c1C (as salt: hydrochloride) [Example 35, N-(3-{5-[3′-fluoro-2-(methoxymethyl)-2′-methylbiphenyl-4-yl]-1,2,4-oxadiazol-3-yl}benzyl)-N-methylglycine, hydrochloride salt] | 216 to 218 |  |  |  |  |  |  | 
3 | COCc1cc(-c2nc(-c3cccc(CN(C)CC(=O)O)c3)no2)ccc1-c1ccc(F)cc1C (as salt: hydrochloride) [Example 36, N-(3-{5-[4′-fluoro-2-(methoxymethyl)-2′-methylbiphenyl-4-yl]-1,2,4-oxadiazol-3-yl}benzyl)-N-methylglycine, hydrochloride salt] | 214 to 216 |  |  |  |  |  |  | 
4 | COCc1cc(-c2nc(-c3cccc(CN(C)CC(=O)O)c3)no2)ccc1-c1cc(F)ccc1C (as salt: hydrochloride) [Example 37, N-(3-{5-[5′-fluoro-2-(methoxymethyl)-2′-methylbiphenyl-4-yl]-1,2,4-oxadiazol-3-yl}benzyl)-N-methylglycine, hydrochloride salt] | 177 to 183 |  |  |  |  |  |  | 
5 | COCc1cc(-c2nc(-c3ccc(CN(C)CC(=O)O)cc3)no2)ccc1-c1ccccc1Cl (as salt: hydrochloride) [Example 118, N-(4-{5-[2′-chloro-2-(methoxymethyl)biphenyl-4-yl]-1,2,4-oxadiazol-3-yl}benzyl)-N-methylglycine, hydrochloride salt] | 194 to 200 |  |  |  |  |  |  | 
6 | COCc1cc(-c2nc(-c3ccc(CN(C)CC(=O)O)c(F)c3)no2)ccc1-c1ccccc1Cl (as salt: hydrochloride) [Example 119, N-(4-{5-[2′-chloro-2-(methoxymethyl)biphenyl-4-yl]-1,2,4-oxadiazol-3-yl}-2-fluorobenzyl)-N-methylglycine, hydrochloride salt] | 181 to 188 |  |  |  |  |  |  | 
7 | Cc1cc(-c2nc(-c3ccc(CN(C)CC(=O)O)cc3)no2)ccc1-c1ccccc1C(F)F (as salt: hydrochloride) [Example 137, N-(4-{5-[2′-(difluoromethyl)-2-methylbiphenyl-4-yl]-1,2,4-oxadiazol-3-yl}benzyl)-N-methylglycine, hydrochloride salt] | 229 to 234 |  |  |  |  |  |  | 
8 | CC1CCCCN1c1ccc(-c2nc(-c3cccc(CN(C)CC(=O)O)c3)no2)cc1C(F)(F)F (stereo not drawn) [Example 13, N-methyl-N-(3-{5-[4-(2-methylpiperidin-1-yl)-3-(trifluoromethyl)phenyl]-1,2,4-oxadiazol-3-yl}benzyl)glycine] |  | 4.58e-10 | 7.38 | 470 | 8.95e-08 | 2.75e-07 | 0.96 | 
9 | COCc1cc(-c2nc(-c3cc(F)cc(CN(C)CC(=O)O)c3)no2)ccc1-c1ccccc1C [Example 20, N-(3-fluoro-5-{5-[2-(methoxymethyl)-2′-methylbiphenyl-4-yl]-1,2,4-oxadiazol-3-yl}benzyl)-N-methylglycine, hydrochloride salt] |  | 1.69e-10 | 5.33 | 59.9 | 1.73e-08 | 7.78e-08 | 0.717 | Ki (S1P1 [1]; [10]): 1.33e-09 M; % Lymphopenia in mouse at 48 h (lymphocytes): 72 ± 5%; Plasma AUD? [6]: 202.751 µg·h/mL; Lymph node/plasma ratio: 24 h ([6]; 24 h): 0.8; Lymph node/plasma ratio: 48 h ([6]; 48 h): 0.7; Kp ([6]; female, C57BL/6, brain, oral, 30 mg/kg, ratio of AUC, read-out: Brain/Plasma-Ratio: AUCZ (h*ng/ml)): 0.15; Cmax [6, 11]: 10300 ng/mL; Tmax [6, 11]: 4 h; half-life [6, 11]: 5.3 h; CL/F ([6]; female, C57BL/6, plasma, po, 30 mg/kg, read-out: Cl/F (L/kg/h) (Fz%)): 0.15 L/kg/h
10 | COCc1cc(-c2nc(-c3cc(F)cc(CN(C)CCC(=O)O)c3)no2)ccc1-c1ccccc1C [Example 21, N-(3-fluoro-5-{5-[2-(methoxymethyl)-2′-methylbiphenyl-4-yl]-1,2,4-oxadiazol-3-yl}benzyl)-N-methyl-beta-alanine, hydrochloride salt] |  | 1.17e-10 | 4.52 | 15 | 1.13e-08 | 1.56e-08 | 0.332 | Ki (S1P1 [1]; [10]): 9.99e-10 M
